For experiment [1], the system named is HUVEC. The experiment in a line: Nitric oxide assay in HUVEC. The experiment is classed as cell-based, human. To be noted: 150 μg/ml TP508 vs 20 μM A23187, 1 h, n=4 (p>0.05).
The next experiment has as its target αvβ3. To be noted: read-out: affinity of αvβ3 to ligand; ref [30]–[31]; cited from earlier work.
Experiment [2] deals with T1, integrin αvβ3 (Homo sapiens, UniProt P05106+P06756). The experiment in a line: Inhibition of HEK-αvβ3 adhesion to immobilised fibrinogen by soluble peptide. To be noted: wells coated with 1 μg/ml fibrinogen; 30 min, n=3. The experiment is classed as cell-based.
The next experiment relates to endothelial cells. To be noted: thrombin immobilised to a surface, ref [15]–[17]; cited from earlier work.
Experiment [3] concerns the target T1, integrin αvβ3. In words: Adhesion of HEK-αvβ3 cells to immobilised TP508 peptides. The experiment is classed as cell-based. To be noted: calcein AM-labelled cells, 30 min, 37°C, fluorescence (Ex485/Em530), n=3.
Experiment [4] deals with HUVEC. The experiment in a line: Adhesion of HUVEC to immobilised TP508 peptides. The experiment is classed as cell-based, human. To be noted: calcein AM-labelled cells, 30 min, 37°C, fluorescence, n=3.
The test system of experiment [5] is HUVEC. In words: Inhibition of HUVEC adhesion to immobilised fibrinogen by soluble peptide. The experiment is classed as cell-based, human. To be noted: wells coated with 1 μg/ml fibrinogen; 30 min, n=3.
Experiment [6] addresses T1, integrin αvβ3. In words: Surface plasmon resonance, binding to integrin αvβ3. To be noted: BIAcore 2000, CM5 chip, 1,290 RU RAD-TP508, αvβ3 0.053 to 1.06 μM. On the technique in general: In SPR one partner is held on a chip, and binding of the other changes the refractive index at the surface.
Another experiment relates to rat aortic rings. The experiment in a line: Muscle-bath assay, carbachol-induced vasorelaxation of rat aortic rings. Further details: species or system rat (Sprague Dawley). To be noted: no TP508, 500 nM norepinephrine 10 min, cumulative 750 nM carbachol; n=3 aortas.

T1 sequence (P06756 31-889 limits assumed): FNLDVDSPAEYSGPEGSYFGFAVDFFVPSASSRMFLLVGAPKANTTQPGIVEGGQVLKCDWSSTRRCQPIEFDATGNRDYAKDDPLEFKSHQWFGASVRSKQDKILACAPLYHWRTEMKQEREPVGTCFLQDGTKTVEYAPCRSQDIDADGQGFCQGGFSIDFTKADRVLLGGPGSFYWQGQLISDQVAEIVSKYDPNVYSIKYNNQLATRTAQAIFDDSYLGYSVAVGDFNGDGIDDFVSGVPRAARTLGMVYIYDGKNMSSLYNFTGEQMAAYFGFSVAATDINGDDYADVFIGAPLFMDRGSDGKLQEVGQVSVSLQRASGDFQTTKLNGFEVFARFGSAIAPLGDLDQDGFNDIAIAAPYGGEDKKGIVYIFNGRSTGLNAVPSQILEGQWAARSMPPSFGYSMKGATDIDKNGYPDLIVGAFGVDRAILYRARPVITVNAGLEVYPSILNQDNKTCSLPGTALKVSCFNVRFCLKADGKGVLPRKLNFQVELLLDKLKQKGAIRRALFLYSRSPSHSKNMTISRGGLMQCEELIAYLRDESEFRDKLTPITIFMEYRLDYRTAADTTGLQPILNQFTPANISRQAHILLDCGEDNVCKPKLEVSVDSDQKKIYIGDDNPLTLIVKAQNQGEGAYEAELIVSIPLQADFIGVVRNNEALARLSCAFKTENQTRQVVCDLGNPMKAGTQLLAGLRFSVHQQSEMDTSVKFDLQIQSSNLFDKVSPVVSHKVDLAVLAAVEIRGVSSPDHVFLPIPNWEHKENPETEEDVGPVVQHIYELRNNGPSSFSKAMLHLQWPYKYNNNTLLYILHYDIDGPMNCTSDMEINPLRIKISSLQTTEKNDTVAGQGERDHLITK
T1 sequence (P06756 891-1048 partner limits assumed): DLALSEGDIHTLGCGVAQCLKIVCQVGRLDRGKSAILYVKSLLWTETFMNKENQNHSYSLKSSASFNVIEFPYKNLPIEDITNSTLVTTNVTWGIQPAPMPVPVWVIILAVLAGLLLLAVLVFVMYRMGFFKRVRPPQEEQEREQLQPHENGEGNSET
T1 sequence (P05106 27-788): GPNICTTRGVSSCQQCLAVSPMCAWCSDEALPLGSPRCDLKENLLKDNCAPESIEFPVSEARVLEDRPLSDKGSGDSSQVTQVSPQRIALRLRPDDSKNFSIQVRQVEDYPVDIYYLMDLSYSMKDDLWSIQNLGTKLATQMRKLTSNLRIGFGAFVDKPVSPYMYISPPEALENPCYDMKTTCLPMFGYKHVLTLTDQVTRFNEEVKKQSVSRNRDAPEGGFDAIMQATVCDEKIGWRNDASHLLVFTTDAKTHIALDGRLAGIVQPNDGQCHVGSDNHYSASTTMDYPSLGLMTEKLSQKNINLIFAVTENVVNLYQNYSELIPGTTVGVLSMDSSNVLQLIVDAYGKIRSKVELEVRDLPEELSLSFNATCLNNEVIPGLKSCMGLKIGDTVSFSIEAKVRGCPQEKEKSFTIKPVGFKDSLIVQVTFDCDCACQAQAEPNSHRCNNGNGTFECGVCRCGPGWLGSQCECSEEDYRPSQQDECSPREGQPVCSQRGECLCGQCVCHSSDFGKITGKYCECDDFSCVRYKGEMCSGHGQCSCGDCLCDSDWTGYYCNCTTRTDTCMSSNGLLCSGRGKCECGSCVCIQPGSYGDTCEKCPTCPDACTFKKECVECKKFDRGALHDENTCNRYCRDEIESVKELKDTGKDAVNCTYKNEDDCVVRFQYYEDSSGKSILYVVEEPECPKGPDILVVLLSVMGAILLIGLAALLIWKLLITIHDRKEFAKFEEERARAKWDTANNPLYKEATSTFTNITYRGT

For `CNc1ccc2oc(C[C@H]3O[C@@]4(CC[C@H]3C)O[C@H]([C@H](C)C(=O)c3ccc[nH]3)[C@H](C)C[C@H]4C)nc2c1C(=O)O` [A23187], the “NO induction by TP508 compared with A23187” value in the experiment with HUVEC [1] is listed as “a potent inducer of NO”.

For “vitronectin: physiological ligand of αvβ3”, the Kd at αvβ3 is 0.027 µM.

Regarding GRGDSP, the “effect of soluble peptide on HEK-αvβ3 adhesion to immobilised fibrinogen” value at integrin αvβ3 [2] was “effectively inhibited cell adhesion”.

For Thrombin, the “endothelial cell adhesion to immobilised thrombin” value in the experiment with endothelial cells is reported as “support endothelial cell adhesion in an RGD-dependent manner”.

On to fibrinogen: Human fibrinogen, for which the Kd at αvβ3 is 0.064 µM.

AGYKPDEGKRADACEGDSGGPFV [RAD-TP508]: the “adhesion of HEK-αvβ3 cells to immobilised peptide” value on integrin αvβ3 [3] is “did not support HEK-αvβ3 adhesion”. Also, in the experiment with HUVEC [4], the “adhesion of HUVEC to immobilised peptide” value was “did not support HUVEC adhesion”. The “effect of soluble peptide on HUVEC adhesion to immobilised fibrinogen” value with HUVEC [5] is “did not affect HUVEC adhesion to immobilised fibrinogen”. On integrin αvβ3 [6], the “binding of αvβ3 to coupled peptide (SPR)” value was “No binding”.

As for `C[N+](C)(C)CCOC(N)=O` [carbachol], the “vasorelaxation by carbachol in rings not treated with TP508, 750 nM” value in the experiment on rat aortic rings was 20%.

Take KAPSEVDKAGDRDGYGFCGGPGE [scrTP508]: the “adhesion of HEK-αvβ3 cells to immobilised peptide” value at integrin αvβ3 [3] is “did not support HEK-αvβ3 adhesion”. Further, the “adhesion of HUVEC to immobilised peptide” value in the experiment with HUVEC [4] is recorded as “did not support HUVEC adhesion”. Also, the “effect of soluble peptide on HUVEC adhesion to immobilised fibrinogen” value with HUVEC [5] is listed as “did not affect HUVEC adhesion to immobilised fibrinogen”.
